Columns and labels:
[1] = molecular target: T1, human recombinant MAO-B (Homo sapiens, UniProt P27338); test: MAO activity assay (fluorometric, kynuramine substrate), MAO-B; assay type: biochemical; details: for inhibition at 1000 µM: 10^−3 M; for inhibition at 1000 µM / inhibition at 100 µM: ± S.D.; for inhibition at 100 µM: 10^−4 M
T1 construct: purchased Sigma-Aldrich
T1 sequence (P27338 1-520): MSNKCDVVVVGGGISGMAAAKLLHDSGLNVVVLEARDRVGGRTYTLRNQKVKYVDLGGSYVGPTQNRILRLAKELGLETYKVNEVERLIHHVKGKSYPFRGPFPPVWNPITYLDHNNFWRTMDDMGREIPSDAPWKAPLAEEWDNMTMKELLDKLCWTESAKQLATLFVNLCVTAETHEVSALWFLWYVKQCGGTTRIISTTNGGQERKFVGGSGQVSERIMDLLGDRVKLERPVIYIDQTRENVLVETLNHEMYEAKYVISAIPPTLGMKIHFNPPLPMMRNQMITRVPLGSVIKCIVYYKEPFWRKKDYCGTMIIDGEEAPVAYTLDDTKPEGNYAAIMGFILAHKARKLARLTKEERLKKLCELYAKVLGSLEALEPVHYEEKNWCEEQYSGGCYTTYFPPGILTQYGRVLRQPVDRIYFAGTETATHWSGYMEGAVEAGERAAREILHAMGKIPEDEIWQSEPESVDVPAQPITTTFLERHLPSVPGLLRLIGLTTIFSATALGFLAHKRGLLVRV
Method: (§1) The enzyme activity assay was performed in accordance with the procedure reported by Matsumoto et al. with slight modifications. All materials used in the enzymatic assays were purchased from Sigma-Aldrich Chemicals. All pipetting protocols in the assay were performed by the Biotek Precision robotic system (BioTek Instruments, Inc., Winooski, VT, USA). To prevent the effect of light MAO enzymes, the assay was performed in 96-well black plates. Phosphate buffer (0.1 M, pH = 7.4) was used for the preparation of 5 mg/mL stock solutions of the human recombinant MAO-A and MAO-B enzymes. The enzyme stock solutions were further diluted with an assay buffer to obtain final concentrations of 0.006 mg/mL MAO-A and 0.015 mg/mL MAO-B. Kynuramine was dissolved in sterilized distilled water to obtain a 25 mM stock solution and then diluted with the assay buffer to obtain final concentrations of 40 μM for the MAO-A enzyme and 20 μM for the MAO-B enzyme. […] The addition of the diluted compounds was followed by the addition of either the MAO-A or MAO-B enzymes (50 μL/well). […] Fluorescence was read from top by using BioTek-Synergy H1 multimode microplate reader at the excitation/emission wavelengths of 310 and 380 nm.
(§2) The IC50 values (Table 2) were calculated from the plots of enzyme activity against concentrations, and the regression analyses were computed in GraphPad Prism Version 6 (GraphPad Software, Inc., La Jolla, CA, USA).

[2] = molecular target: T2, MAO-A enzyme (Homo sapiens, UniProt P21397); test: MAO activity assay (fluorometric, kynuramine substrate), MAO-A; assay type: biochemical; details: for inhibition at 1000 µM: 10^−3 M; for inhibition at 1000 µM / inhibition at 100 µM: ± S.D.; for inhibition at 100 µM: 10^−4 M; for inhibition at 10 µM: 10^−5 M; for inhibition at 1 µM: 10^−6 M; for inhibition at 0.1 µM: 10^−7 M; for inhibition at 0.01 µM: 10^−8 M; for inhibition at 0.001 µM: 10^−9 M
T2 construct: purchased Sigma-Aldrich
T2 sequence (P21397 1-527): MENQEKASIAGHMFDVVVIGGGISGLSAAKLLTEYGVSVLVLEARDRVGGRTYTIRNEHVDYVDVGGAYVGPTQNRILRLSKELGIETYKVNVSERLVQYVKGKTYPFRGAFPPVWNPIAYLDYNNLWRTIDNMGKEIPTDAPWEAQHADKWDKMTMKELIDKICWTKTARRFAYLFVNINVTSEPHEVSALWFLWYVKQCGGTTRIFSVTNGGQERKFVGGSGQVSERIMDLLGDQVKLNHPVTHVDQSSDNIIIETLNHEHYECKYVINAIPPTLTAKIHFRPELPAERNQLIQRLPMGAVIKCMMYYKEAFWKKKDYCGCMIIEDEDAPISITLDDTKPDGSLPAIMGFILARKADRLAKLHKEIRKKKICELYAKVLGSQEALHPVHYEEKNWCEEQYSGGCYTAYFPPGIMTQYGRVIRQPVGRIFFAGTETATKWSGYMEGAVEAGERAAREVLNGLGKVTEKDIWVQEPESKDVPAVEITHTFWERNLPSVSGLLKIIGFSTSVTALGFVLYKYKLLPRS
Method: as §1, with “Phosphate buffer (0.1 M, pH = 7.4) was used for the preparation of 5 mg/mL stock solutions of the human recombinant MAO-A and MAO-B enzymes.” left out
as §2

[3] = Cytotoxicity test (MTT assay); details: mouse, NIH/3T3 mouse embryonic fibroblast cells (ATCC CRL-1658)
Method: The MTT assay was performed as previously described [21, 22, 23, 24, 25, 26].

[4] = molecular target: T2, MAO-A enzyme; test: Enzyme kinetic studies (Lineweaver-Burk plots) on MAO-A; assay type: biochemical
Method: The same materials were used for the MAO-inhibition assay. Compound 2j was prepared at the IC50 concentration calculated in the enzyme assay and then added to the wells (100 μL/well). The stock solution (25 mM) of kynuramine in 0.1 M phosphate buffer was diluted to final concentrations of 40, 20, 10, 5, 2.5 and 1.25 μM and then added to the wells (50 μL/well) that contained the test compound. The MAO-A enzyme was added to the plate (50 μL/well), incubated for 20 min at 37 °C, and the plate was read at excitation/emission wavelengths of 310 and 340 nm. The control measurement without the inhibitor was determined simultaneously. The results were analyzed by using Lineweaver-Burk plots in Microsoft Office Excel 2013 (Microsoft Inc., Redmond, WA, USA).
1/V: 1/rate of reaction [1/(nmoles/min/mg protein)], 1/S: 1/substrate concentration (1/µM).

inhibition at 1000 µM [1] [%] | inhibition at 100 µM [1] [%] | melting point [°C] | inhibition at 1000 µM [2] [%] | inhibition at 100 µM [2] [%] | IC50 [2] [µM] | inhibition at 10 µM [2] [%] | inhibition at 1 µM [2] [%] | inhibition at 0.1 µM [2] [%] | inhibition at 0.01 µM [2] [%] | inhibition at 0.001 µM [2] [%] | IC50 [1] [µM] | inhibition at 10 µM ([1]; 10^−5 M) [%] | inhibition at 1 µM ([1]; 10^−6 M) [%] | inhibition at 0.1 µM ([1]; 10^−7 M) [%] | inhibition at 0.01 µM ([1]; 10^−8 M) [%] | inhibition at 0.001 µM ([1]; 10^−9 M) [%] | Vmax ([4]; MAO-A, kynuramine substrate, nonlinear regression) [nmol/min/mg protein] | Nature of MAO-A inhibition (Lineweaver–Burk plots) ([4]; compound at IC50 concentration, kynuramine 40-1.25 μM) | Compound | IC50 [3] [µM]
0.76 ± 0.03 | 0.58 ± 0.01 | 168 | 25.6 ± 0.88 | 17.9 ± 0.68 | – | – | – | – | – | – | – | – | – | – | – | – | – | – | CCOc1ccc([N+](=O)[O-])c(NN=Cc2ccccc2)n1 [Compound 2a, 2-(2-Benzylidenehydrazinyl)-6-ethoxy-3-nitropyridine] | –
0.43 ± 0.02 | 0.11 ± 0.004 | 211 | 49 ± 1.22 | 0.46 ± 0.01 | – | – | – | – | – | – | – | – | – | – | – | – | – | – | CCOc1ccc([N+](=O)[O-])c(NN=Cc2ccc(Cl)cc2)n1 [Compound 2b, 2-[2-(4-Chlorobenzylidene)hydrazinyl]-6-ethoxy-3-nitropyridine] | –
60.2 ± 1.18 | 0.69 ± 0.03 | 191 | 52 ± 1.02 | 7.09 ± 0.18 | – | – | – | – | – | – | – | – | – | – | – | – | – | – | CCOc1ccc([N+](=O)[O-])c(NN=Cc2ccc(F)cc2)n1 [Compound 2c, 6-Ethoxy-2-[2(4-fluorobenzylidene)hydrazinyl]-3-nitropyridine] | –
0.52 ± 0.02 | 0.18 ± 0.006 | 171 | 20.1 ± 0.41 | 11.4 ± 0.28 | – | – | – | – | – | – | – | – | – | – | – | – | – | – | CCOc1ccc([N+](=O)[O-])c(NN=Cc2ccc(C)cc2)n1 [Compound 2d, 6-Ethoxy-2-[2-(4-methylbenzylidene)hydrazinyl]-3-nitropyridine] | –
33.1 ± 1.14 | 0.22 ± 0.008 | 175 | 55.6 ± 1.05 | 14 ± 0.41 | – | – | – | – | – | – | – | – | – | – | – | – | – | – | CCOc1ccc([N+](=O)[O-])c(NN=Cc2ccc(OC)cc2)n1 [Compound 2e, 6-Ethoxy-2-[2-(4-methoxybenzylidene)hydrazinyl]-3-nitropyridine] | –
0.67 ± 0.03 | 0.27 ± 0.01 | 267 | 25.9 ± 0.87 | 14.4 ± 0.54 | – | – | – | – | – | – | – | – | – | – | – | – | – | – | CCOc1ccc([N+](=O)[O-])c(NN=Cc2ccc(C#N)cc2)n1 [Compound 2g, 6-Ethoxy-2-[2-(4-cyanobenzylidene)hydrazinyl]-3-nitropyridine] | –
86.3 ± 1.25 | 3.52 ± 0.15 | 192 | 80.8 ± 1.31 | 16.9 ± 0.49 | – | – | – | – | – | – | – | – | – | – | – | – | – | – | CCOc1ccc([N+](=O)[O-])c(NN=Cc2ccc(N(C)C)cc2)n1 [Compound 2h, 6-Ethoxy-2-[2-(4-dimethylaminobenzylidene)hydrazinyl]-3-nitropyridine] | –
38.3 ± 1.19 | 29.1 ± 0.99 | 165 | 55.7 ± 1.26 | 51.7 ± 1.18 | 13.1 | 31.2 ± 1.2 | 21.1 ± 0.84 | 15.4 ± 0.62 | 12.7 ± 0.43 | 11.6 ± 0.38 | – | – | – | – | – | – | – | – | CCOc1ccc([N+](=O)[O-])c(NN=Cc2ccc(C(F)(F)F)cc2)n1 [Compound 2i, 6-Ethoxy-2-[2-(4-trifluoromethylbenzylidene)hydrazinyl]-3-nitropyridine] | > 1000
63.8 ± 1.28 | 52.7 ± 1.29 | 158 | 75.7 ± 1.85 | 69.8 ± 1.43 | 6.25 | 56.1 ± 1.27 | 43.2 ± 1.06 | 38.8 ± 1.07 | 32.7 ± 0.82 | 26.7 ± 0.96 | 9.3 | 40.2 ± 1.12 | 31.6 ± 1.08 | 25 ± 0.95 | 21.9 ± 0.82 | 12.5 ± 0.51 | 1.903 | mixed type inhibitor | CCOc1ccc([N+](=O)[O-])c(NN=Cc2ccc(O)cc2)n1 [Compound 2j, 4-[(2-(6-Ethoxy-3-nitropyridin-2-yl)hydrazono)methyl]phenol] | > 1000
40.9 ± 1.02 | 39.7 ± 1.15 | 163 | 76.6 ± 1.38 | 66.1 ± 1.47 | 6.12 | 54.7 ± 1.2 | 36.6 ± 1.08 | 33.2 ± 0.92 | 25.2 ± 0.88 | 23 ± 0.89 | – | – | – | – | – | – | – | – | CCOc1ccc([N+](=O)[O-])c(NN=Cc2cccn2C)n1 [Compound 2k, 6-Ethoxy-2-[2-((1-methyl-1H-pyrrol-2-yl)methylene)hydrazinyl]-3-nitropyridine] | > 1000
51 ± 1.08 | 43 ± 1.06 | 155 | 67.8 ± 1.44 | 64.4 ± 1.3 | 10.6 | 43 ± 1.02 | 31 ± 0.98 | 27.2 ± 0.89 | 19.8 ± 0.41 | 17.88 ± 0.17 | – | – | – | – | – | – | – | – | CCOc1ccc([N+](=O)[O-])c(NN=Cc2ccco2)n1 [Compound 2l, 6-Ethoxy-2-[2-((furan-2-yl)methylene)hydrazinyl]-3-nitropyridine] | > 1000
34.4 ± 0.88 | 21.2 ± 0.8 | 152 | 41.4 ± 1.13 | 36 ± 1.15 | – | – | – | – | – | – | – | – | – | – | – | – | – | – | CCOc1ccc([N+](=O)[O-])c(NN=Cc2cccs2)n1 [Compound 2m, 6-Ethoxy-3-nitro-2-[2-((thiophen-2-yl)methylene)hydrazinyl]pyridine] | –

Compound | inhibition at 1000 µM [1] [%] | inhibition at 100 µM [1] [%] | melting point [°C] | inhibition at 1000 µM [2] [%] | inhibition at 100 µM [2] [%] | IC50 [2] [µM] | inhibition at 10 µM [2] [%] | inhibition at 1 µM [2] [%] | inhibition at 0.1 µM [2] [%] | inhibition at 0.01 µM [2] [%] | inhibition at 0.001 µM [2] [%] | IC50 [1] [µM] | inhibition at 10 µM ([1]; 10^−5 M) [%] | inhibition at 1 µM ([1]; 10^−6 M) [%] | inhibition at 0.1 µM ([1]; 10^−7 M) [%] | inhibition at 0.01 µM ([1]; 10^−8 M) [%] | inhibition at 0.001 µM ([1]; 10^−9 M) [%] | Vmax ([4]; MAO-A, kynuramine substrate, nonlinear regression) [nmol/min/mg protein] | Nature of MAO-A inhibition (Lineweaver–Burk plots) ([4]; compound at IC50 concentration, kynuramine 40-1.25 μM) | IC50 [3] [µM]
CCOc1ccc([N+](=O)[O-])c(NN=Cc2ccc([N+](=O)[O-])cc2)n1 [Compound 2f, 6-Ethoxy-3-nitro-2-[2-(4-nitrobenzylidene)hydrazinyl]pyridine] | 7.39 ± 0.31 | 0.55 ± 0.02 | 281 | 65 ± 1.23 | 16 ± 0.56 | – | – | – | – | – | – | – | – | – | – | – | – | – | – | –
O=C(NCCN1CCOCC1)c1ccc(Cl)cc1 [Moclobemide, moclobemide, reference compound] | – | – | – | – | – | – | 60.5 ± 2.55 | 36.1 ± 1.98 | 22.1 ± 1.33 | 18.2 ± 0.81 | 14.1 ± 0.72 | – | – | – | – | – | – | – | – | –

Reference: publication PMC6017090, “Design, Synthesis and Biological Evaluation of Novel N-Pyridyl-Hydrazone Derivatives as Potential Monoamine Oxidase (MAO) Inhibitors” (Molecules : A Journal of Synthetic Chemistry and Natural …, 2018)
